Experimental data taken from patent publication US20050282911A1, “Memantine for the prevention or reduction of suicidality and for treatment of major depression associated with suicidality” (priority 2003, published 2005).
“Also recorded” adds a separate entry of the source.

Legend:
[1] = system: patients with depression of Alzheimer's disease; assay: Study MEM-MD-17: memantine in depression of Alzheimer's disease, suicide items of CSDD, MADRS, HAMD; format: in vivo, human; set-up: key to Change from Baseline in CSDD item #16 (suicide item): change in item score; 0=absent, 1=mild to intermittent, 2=severe; Change from Baseline in MADRS item #10 (suicide item) / Change from Baseline in HAMD item #3 (suicide item): scale not given here
Procedure: The objective of this study (MEM-MD-17) was to evaluate the safety and efficacy of memantine and memantine in combination with escitalopram in patients with depression of Alzheimer's disease.
The clinical study was conducted in two phases —12-weeks of open-label treatment with memantine (MEM) followed by 12-weeks of randomized double-blind treatment with memantine+placebo (MEM+PBO) or memantine+escitalopram (MEM+SCT).
Study design. Patients were started on memantine 5 mg/day which was increased to 10 mg/day at end of Week 1. The dose could be further increased to a maximum of 20 mg/day in patients with inadequate response in weekly increments of 5 mg. At end of Week 12, patients were randomized to one of the two treatment groups: MEM+PBO or MEM+SCT. The dose of memantine during the double-blind treatment period was fixed at the same level as at the end of Week 12 and the dose of escitalopram was fixed at 10 mg. Dose adjustments during the double-blind period were not permitted.
Patient Population. A total of 15 patients were enrolled in 2 sites. Three of the 15 patients discontinued during the open-label phase. The remaining 12 were randomized to double-blind treatment, 5 in the MEM+PBO treatment group, and 7 in the MEM+SCT treatment group. A total of 10 patients completed the study.
Endpoints. Several rating scales were used to assess efficacy for depression. The Cornell Scale for Depression in Dementia (CSDD); the HAMD; and the MADRS. The HAMD and MADRS have been described above.
CSDD. This is a […] scale which is subdivided into five sections: (A) Mood-Related Signs (questions 1-4); (B) Behavioral Disturbances (questions 5-8); (C) Physical Signs (questions 9-11); (D) Cyclic Functions (questions 12-15); and (E) Ideational Disturbances (questions 16-19). Question 16 is explicitly directed to suicidal ideation. The scoring system ranges from a=unable to evaluate; 0=absent; 1=mild to intermittent; and 2=severe.
Statistics. The efficacy analyses were based on the ITT population using both last observation carried forward (LOCF) and observed cases (OC) approaches. For each of the parameters, descriptive statistics were presented for the actual values and change from baseline by visit. For categorical variables, frequency distributions were presented.

[2] = cited from earlier work
[3] = system: patients with major depressive disorder (MDD); assay: Open-label 12-week study of memantine in MDD (MEM-MD-09): safety and adverse events; format: in vivo, human
Procedure: Study Design. The study was designed as a single-center, open-label, flexible dose 12-week study. Memantine was to be administered at 20 mg/day (10 mg b.i.d.) (titrated over a 4 week period), and, if warranted, up-titrated to a maximum of 40 mg/day (20 mg b.i.d.) (titrated in increments of 10 mg/day after Week 4).
Drug Treatment. All eight patients were initially given 5 mg/day and titrated over a 3-week period to a minimum dose of 20 mg/day. Patients with an unsatisfactory therapeutic response (CGI-I score greater than 2) could increase to a maximum of 40 mg/day (2 patients, 30 mg/day and 40 mg/day, respectively). One patient was titrated to 30 mg/day after Week 8, and […] after Week 10. The mean treatment duration was 82 days (range: 57-86 days) and the mean daily dose was 18.1 mg/day.
Safety. Safety was assessed throughout the course of the study by monitoring vital signs and spontaneously reported adverse events.

CC12CC3CC(C)(C1)CC(N)(C3)C2.Cl [Memantine, 1-amino-3,5-dimethyladamantane hydrochloride]
Change from Baseline in CSDD item #16 (suicide item) ([1]; Week 12, ITT Population, N = 5 who received memantine throughout, baseline 0.4): −0.4 | Change from Baseline in HAMD item #3 (suicide item) ([1]; Week 12, ITT Population, N = 5 who received memantine throughout, baseline 0.8): −0.8 | Change from Baseline in MADRS item #10 (suicide item) ([1]; Week 12, ITT Population, N = 5 who received memantine throughout, baseline 1.0): −1.0 | Change from Baseline in CSDD item #16 (suicide item) ([1]; Week 12, LOCF, ITT Population, N = 15, baseline 0.4): −0.3 | Change from Baseline in HAMD item #3 (suicide item) ([1]; Week 12, LOCF, ITT Population, N = 15, baseline 0.5): −0.5 | Change from Baseline in MADRS item #10 (suicide item) ([1]; Week 12, LOCF, ITT Population, N = 15, baseline 0.9): −0.6 | Change from Baseline in CSDD item #16 (suicide item) ([1]; Week 24, ITT Population, N = 5 who received memantine throughout, baseline 0.4): −0.3 | Change from Baseline in HAMD item #3 (suicide item) ([1]; Week 24, ITT Population, N = 5 who received memantine throughout, baseline 0.8): −0.5 | Change from Baseline in MADRS item #10 (suicide item) ([1]; Week 24, ITT Population, N = 5 who received memantine throughout, baseline 1.0): −0.5 | suicidality as measured by 3 different depression rating instruments ([1]; change from Baseline at Weeks 12 and 24, hydrochloride): modest but consistent numerical improvement in suicidality; also recorded: trend towards reduced suicidal thoughts and ideation | solubility in aqueous media [2]: highly soluble | clinical laboratory parameters, vital signs or ECG values ([3]; 20-40 mg/day, 12 weeks): no safety findings of concern | deaths, serious adverse events, discontinuations due to adverse events ([3]; 20-40 mg/day, 12 weeks): No deaths, serious adverse events or discontinuations due to adverse events | safety and tolerability ([3]; 20-40 mg/day, 12 weeks): safe and well tolerated | Number of Patients Reporting TEAE: Amnesia ([3]; Safety Population, N = 8): 2 patients | Number of Patients Reporting TEAE: Anxiety ([3]; Safety Population, N = 8): 2 patients | Number of Patients Reporting TEAE: Dizziness ([3]; Safety Population, N = 8): 2 patients | Number of Patients Reporting TEAE: Headache ([3]; Safety Population, N = 8): 2 patients | Number of Patients Reporting TEAE: Influenza-like Symptoms ([3]; Safety Population, N = 8): 2 patients | Number of Patients Reporting TEAE: Insomnia ([3]; Safety Population, N = 8): 2 patients | Number of Patients Reporting TEAE: Patients with at least one TEAE ([3]; Safety Population, N = 8): 8 patients | Number of Patients Reporting TEAE: Somnolence ([3]; Safety Population, N = 8): 3 patients
